Data set [1] in a line: Permeability test in MDR1-MDCKII monolayer cell model. The format is in vitro ADME. Particulars: dog; for efflux ratio at 2.5 h, 2 µM: MDCK-MDR1, pH 7.4, ER=Papp(BA)/Papp(AB); for Papp A→B at 2.5 h, 2 µM: MDCK-MDR1, pH 7.4, pH 7.40, 2.5 hours, 37±1° C., read-out: Apparent permeability coefficient (Papp (AB)). The method, then:
Experimental objective: The permeability and efflux ratio of the compound of the present disclosure were determined using the MDR1-MDCKII monolayer cell model to assess its membrane permeability and potential for P-gp-mediated efflux transport.
Experimental protocol: MDR1-MDCKII cells (obtained from the Netherlands Cancer Institute) were seeded in 96-well plates (obtained from Corning) at a cell density of 3.33×10^5 cells/mL and cultured for 4 to 7 days to form confluent cell monolayers. Hank's balanced salt solution containing 10 mM HEPES (pH 7.40) was used as the transport buffer. The test compound was evaluated for bidirectional transport at a concentration of 2 μM, with the DMSO concentration in the incubation system maintained below 1%. After adding the samples, the cell plate was incubated at 37±1° C., 5% CO2, and saturated humidity for 2.5 hours. All samples were quantitatively analyzed using the LC-MS/MS method. The apparent permeability coefficient (Papp, cm/s) and efflux ratio (ER) were calculated using the following formula. Apparent permeability coefficient (Papp, cm/s) was calculated using the following formula: Papp=(dCr/dt)×Vr/(A×C0). Herein, dCr/dt represents the cumulative concentration of the compound at the receiving end per unit time (μM/s); Vr is the volume of the solution at the receiving end (with solution volumes at the apical and basolateral ends being 0.075 mL and 0.250 mL, respectively); A is the relative surface area of the cell monolayer (0.143 cm^2); C0 is the initial concentration of the test substance at the dosing end (μM) or the peak area ratio of the reference substance. The efflux ratio was calculated using the following formula: ER=Papp(BA)/Papp(AB).

The nature of data set [2]: Plasma protein binding rate test, human (equilibrium dialysis). Format: in vitro ADME. Particulars: 37° C. From the text: (§1) The sample was thoroughly mixed.
The nature of data set [3]: Plasma protein binding rate test, SD rat (equilibrium dialysis). Format: in vitro ADME. Particulars: 37° C., read-out: Plasma protein binding rate (%) in SD rats (converted).
Description: as §1
Background: In equilibrium dialysis only unbound substance equilibrates across the membrane.

Data set [4] is described as follows: In vivo pharmacokinetics study in rats. More on the design: species or system SD rat. Conditions: male SD rats, oral 2 mg/kg; for AUC(0-t) at 24 h: read-out: AUC0-24 h.
Data set [5] in a line: Plasma protein binding rate test, cynomolgus monkey (equilibrium dialysis). The format is in vitro ADME. Particulars: 37° C., read-out: Plasma protein binding rate (%) in cynomolgus monkeys (converted).
Description: as §1

The nature of data set [6]: In vitro liver microsome metabolic stability study. Format: in vitro ADME. Conditions: human liver microsomes 0.5 mg/mL, compound 1 μM, 37° C., up to 60 minutes; read-out: Intrinsic hepatic clearance CLint(liver). The method, then: Stock solution: 10 mM in DMSO.
Only 54 μL of microsomal working solution, 6 μL of NADPH regeneration system working solution, and 180 μL of stop solution were added to the blank plate.
LC-MS/MS analysis was performed.

Data set [7] in a line: In vivo pharmacokinetic study in cynomolgus monkeys. More on the design: species or system cynomolgus monkey. Particulars: male cynomolgus monkeys.
For data set [8], the system named is plasma protein. Briefly: Plasma protein binding rate test, human (equilibrium dialysis). The format is in vitro ADME. Particulars: 37° C., 4 hours.
Description: as §1

Data set [9] has as its system plasma protein. Put plainly: Plasma protein binding rate test, cynomolgus monkey (equilibrium dialysis). Conditions: 37° C., 4 hours. Format: in vitro ADME.
Description: as §1

The subject of data set [10] is patients with refractory hypertension. Particulars: cited from earlier work.
Where [11] appears, read: cynomolgus monkey, plasma, oral 3 mg/kg.
Setting [12] is: 2 mg dose, patients with refractory hypertension.

These results are taken from patent US20260317314A1, “NITROGEN-CONTAINING HETEROCYCLIC COMPOUND AND USE THEREOF” (JIANGSU DEYUAN PHARMACEUTICAL CO.,LTD., priority 2023, published 2026).

As a reminder, the efflux ratio is the permeability from basolateral to apical divided by that in the opposite direction, in the common usage. A word on the half-life: it is the time in which the quantity being followed falls by half. The Cmax is the maximum level reached in the sampled fluid or tissue.

As to `CCC(=O)N[C@@H]1CCCc2c(-c3ccc4c(ccc(=O)n4C)c3)cncc21` (single isomer, unassigned) [Compound 001], in data set [1], the efflux ratio at 2.5 h, 2 µM is 1.76. Moreover, in [1], the Papp A→B at 2.5 h, 2 µM was 17.2 ×10⁻⁶ cm/s. In addition, the fraction unbound at 4 h was 0.239 in data set [2], 0.079 in [3] and 0.254 in data set [5]. The bioavailability in [4] (rat, plasma) was 80%; in data set [7] (setting [11]) it was 120%. In addition, the half-life in [4] (rat, plasma) is 4.61 h; in data set [7] (setting [11]), 4.99 h. Further, the Cmax in data set [4] (rat, plasma) is 7.63 µM; in data set [7] (cynomolgus monkey, oral 3 mg/kg, plasma), 4 µM. For the same molecule, the AUC(0-t) at 24 h in [4] (rat, plasma) came out at 59.1 µM·h; in [7] (cynomolgus monkey, oral 3 mg/kg, plasma, read-out: AUC0-24 h), 23.2 µM·h. Besides, in data set [6], the CLint scaled at 1 µM is less than 8.6 mL/min/kg.
Regarding `CCC(=NOC)NC1CCCc2c(-c3ccc4c(c3)CCC(=O)N4C)cncc21` (single isomer, unassigned) [Compound 005], in [1], the efflux ratio at 2.5 h, 2 µM is 0.7 and the Papp A→B at 2.5 h, 2 µM amounted to 23.1 ×10⁻⁶ cm/s. Further, the fraction unbound at 4 h in [2] was 0.106. Moreover, in [3], the fraction unbound at 4 h is 0.102. Moreover, in [4] (rat, plasma), the bioavailability was determined as 111%, the half-life was 2.77 h, the Cmax came out at 1.31 µM and the AUC(0-t) at 24 h turned out to be 7.8 µM·h. Besides, the fraction unbound at 4 h in data set [5] is 0.127.
Regarding `Cc1noc(C)c1C(=O)N[C@@H]1CCCc2c(-c3cc4ccc(=O)n(C)c4cc3F)cncc21` (single isomer, unassigned) [Compound 020], in data set [8], the “Human plasma protein binding rate (%)” value is on record as 85.6%. In [9], the “Plasma protein binding rate (%) in cynomolgus monkeys” value turned out to be 90.3%.
Regarding `CCC(=O)NC1CCCc2c(-c3cc4ccc(=O)n(C)c4s3)cncc21` (single isomer, unassigned) [Compound 023], the “Human plasma protein binding rate (%)” value in [8] came to 69.6%. In data set [4], the F is 109% and the T1/2 is recorded as 3.6 h. In [4] (plasma), this molecule displayed an AUC0-24 h of 44.234 µM·h and a Cmax of 6.92 µM. Further, the “Plasma protein binding rate (%) in cynomolgus monkeys” value in data set [9] is 69.0%. In [7] (oral 1 mg/kg), the F is 76.5% and the T1/2 came to 4.80 h. Further, in [7] (oral 1 mg/kg, plasma), the AUC0-24 h came out at 8.916 µM·h and the highest level (Cmax) was 1.32 µM.
As for `CCC(=O)NC1CCCc2c(-c3cc(F)c4c(c3)OCC(=O)N4C)cncc21` (single isomer, unassigned) [Compound 031], in data set [1], the efflux ratio at 2.5 h, 2 µM was found to be 0.89 and the Papp A→B at 2.5 h, 2 µM came to 20 ×10⁻⁶ cm/s. The same molecule had a fraction unbound at 4 h in data set [2] of 0.193. Moreover, the fraction unbound at 4 h in data set [5] was 0.203. In addition, the CLint scaled at 1 µM in data set [6] was less than 8.6 mL/min/kg.
The matching figures for `CCC(=O)NC1CCCc2c(-c3cc4c(cc3F)N(C)C(=O)CO4)cncc21` (single isomer, unassigned) [Compound 032]: 0.86, 22.6 ×10⁻⁶ cm/s, 0.151, 0.205 and less than 8.6 mL/min/kg.
Take `CCC(=O)NC1CCOc2c(-c3cc4ccc(=O)n(C)c4s3)cncc21` (single isomer, unassigned) [Compound 045]: in data set [1], the efflux ratio at 2.5 h, 2 µM is 1.3 and the Papp A→B at 2.5 h, 2 µM was 16.7 ×10⁻⁶ cm/s. Also, in data set [2], the fraction unbound at 4 h was 0.239. Besides, in data set [5], the fraction unbound at 4 h is 0.32.
For `CCC(=O)N[C@@H]1CCCc2c(-c3ccc4c(c3)CCC(=O)N4C)cncc21` [Baxdrostat], in data set [10] (setting [12]), the “office systolic and diastolic blood pressure” value is “efficacy in reducing office systolic and diastolic blood pressure”; the safety and tolerability entry is “favorable safety and tolerability profiles”. Also, in [10] (clinical studies), the aldosterone secretion levels result is on record as “dose-dependent reduction” and the blood pressure entry is “dose-dependent reduction”. In [10] (phase 2 trials), the blood pressure reduction entry is on record as “significant blood pressure reduction”, the cortisol levels entry is “no impact on cortisol levels”, the elevated blood potassium result is on record as “rare occurrence of elevated blood potassium” and the steroid precursor accumulation result was “absence of steroid precursor accumulation”.
